This note sets out measurements from patent US20240208992A1, “MACROCYCLES AS CFTR MODULATORS” (Idorsia Pharmaceuticals Ltd, priority 2021, published 2024).

The target in the experiment is human F508del-CFTR (Homo sapiens, UniProt P13569, DEL508-508). Briefly: F508del-CFTR cell surface expression (corrector activity), DiscoveRx ß-galactosidase complementation chemiluminescence assay in recombinant U2OS cell line.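 As to all read-outs here: U2OS cells co-expressing ProLink-tagged F508del-CFTR and a membrane-anchored enzyme acceptor, where more surface CFTR restores β-galactosidase activity measured by chemiluminescence.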 The conditions noted are these: U2OS cells, 16h compound incubation; for EC50: EC50, F508del-CFTR cell surface expression, geomean of several measurements; for Emax: U2OS, in relation to the Emax of the corrector lumacaftor (=100%), arithmetic mean.
Chain of human F508del-CFTR (P13569 with tags, fused parts or gaps DEL508-508): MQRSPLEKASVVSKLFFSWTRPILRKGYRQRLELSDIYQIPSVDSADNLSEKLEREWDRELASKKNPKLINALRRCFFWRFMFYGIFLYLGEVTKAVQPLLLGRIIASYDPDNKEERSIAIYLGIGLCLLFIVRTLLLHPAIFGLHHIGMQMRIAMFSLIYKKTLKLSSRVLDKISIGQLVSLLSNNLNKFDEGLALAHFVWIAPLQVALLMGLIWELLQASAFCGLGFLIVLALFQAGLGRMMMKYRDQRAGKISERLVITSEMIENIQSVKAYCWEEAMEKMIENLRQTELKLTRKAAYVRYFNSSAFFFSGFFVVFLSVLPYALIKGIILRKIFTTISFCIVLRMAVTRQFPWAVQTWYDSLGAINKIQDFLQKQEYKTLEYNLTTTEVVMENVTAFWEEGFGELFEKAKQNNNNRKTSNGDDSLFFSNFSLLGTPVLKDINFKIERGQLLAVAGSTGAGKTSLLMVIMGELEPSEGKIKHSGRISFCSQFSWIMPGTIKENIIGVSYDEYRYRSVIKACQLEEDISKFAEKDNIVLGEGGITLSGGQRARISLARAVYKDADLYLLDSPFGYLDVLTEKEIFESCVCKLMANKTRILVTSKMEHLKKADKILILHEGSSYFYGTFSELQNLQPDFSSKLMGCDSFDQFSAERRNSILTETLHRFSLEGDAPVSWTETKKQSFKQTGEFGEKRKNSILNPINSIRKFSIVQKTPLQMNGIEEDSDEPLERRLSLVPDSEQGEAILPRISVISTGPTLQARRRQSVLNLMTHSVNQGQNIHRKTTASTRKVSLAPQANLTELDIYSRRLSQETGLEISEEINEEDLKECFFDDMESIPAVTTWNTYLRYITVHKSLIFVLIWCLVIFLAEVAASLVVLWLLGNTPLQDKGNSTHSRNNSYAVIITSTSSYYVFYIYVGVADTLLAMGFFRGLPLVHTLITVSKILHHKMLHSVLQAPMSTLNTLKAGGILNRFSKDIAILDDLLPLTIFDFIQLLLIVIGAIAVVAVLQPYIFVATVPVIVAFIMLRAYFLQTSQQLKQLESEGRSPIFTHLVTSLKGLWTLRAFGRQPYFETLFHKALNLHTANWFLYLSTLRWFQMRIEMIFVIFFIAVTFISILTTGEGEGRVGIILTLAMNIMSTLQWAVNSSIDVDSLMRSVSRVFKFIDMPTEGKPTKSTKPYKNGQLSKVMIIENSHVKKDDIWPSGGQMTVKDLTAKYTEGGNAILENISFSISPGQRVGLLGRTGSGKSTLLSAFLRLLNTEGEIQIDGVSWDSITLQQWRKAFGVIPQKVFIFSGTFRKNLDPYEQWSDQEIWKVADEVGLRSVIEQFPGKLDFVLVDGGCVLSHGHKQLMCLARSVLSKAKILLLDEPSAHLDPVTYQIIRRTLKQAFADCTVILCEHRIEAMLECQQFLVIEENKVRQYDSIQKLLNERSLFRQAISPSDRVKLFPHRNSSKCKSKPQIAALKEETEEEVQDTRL

The term EC50 denotes the concentration giving half of the maximal effect. For orientation: Emax means the size of the effect at its maximum, as opposed to the concentration needed. For the compound `COc1noc(CCNC(=O)[C@@H]2CC(=O)N(C)[C@@H](CC(C)C)C(=O)N(C)C3(CC(F)(F)C3)C(=O)N[C@H](Cc3ccccc3)COc3ccc4ncc(F)cc4c3C(=O)N2)c1F` [Example 969, (3′S,7′S,13′R)-13′-benzyl-3,3,20′-trifluoro-N-(2-(4-fluoro-3-methoxyisoxazol-5-yl)ethyl)-7′-isobutyl-6′,9′-dimethyl-1′,5′,8′,11′-tetraoxo-2′,3′,4′,5′,6′,7′,8′,9′,11′,12′,13′,14′-dodecahydro-1′H-spiro[cyclobutane-1,10′-[1]oxa[4,7,10,14]tetraazacycloheptadecino[16,17-f]quinoline]-3′-carboxamide], the EC50 turned out to be 142 nM and the maximum response (Emax) amounted to 452%.
With `COc1noc(CCNC(=O)[C@@H]2CC(=O)N(C)[C@@H](CC(C)C)C(=O)N(C)[C@H](CC(F)F)C(=O)N[C@H](Cc3ccccc3)COc3ccc4cnc(C)cc4c3C(=O)N2)c1F` [Example 970, (3S,7S,10R,13R)-13-benzyl-10-(2,2-difluoroethyl)-N-(2-(4-fluoro-3-methoxyisoxazol-5-yl)ethyl)-7-isobutyl-6,9,20-trimethyl-1,5,8,11-tetraoxo-1,2,3,4,5,6,7,8,9,10,11,12,13,14-tetradecahydro-[1]oxa[4,7,10,14]tetraazacycloheptadecino[16,17-f]isoquinoline-3-carboxamide], the 50% effective concentration (EC50) is 109 nM and the maximal response (Emax) was 463%.
Consider `COc1noc(CCNC(=O)[C@@H]2CC(=O)N(C)[C@@H](CC(C)C)C(=O)N(C)[C@H](Cc3noc(C(C)(C)C)n3)C(=O)N[C@H](Cc3ccccc3)COc3ccc4ncc(F)cc4c3C(=O)N2)n1` [Example 971, (3S,7S,10R,13R)-13-benzyl-10-((5-(tert-butyl)-1,2,4-oxadiazol-3-yl)methyl)-20-fluoro-7-isobutyl-N-(2-(3-methoxy-1,2,4-oxadiazol-5-yl)ethyl)-6,9-dimethyl-1,5,8,11-tetraoxo-1,2,3,4,5,6,7,8,9,10,11,12,13,14-tetradecahydro-[1]oxa[4,7,10,14]tetraazacycloheptadecino[16,17-f]quinoline-3-carboxamide], for which the EC50 is 163 nM and the Emax is 482%.
Regarding `COc1cc(CCNC(=O)[C@@H]2CC(=O)N(C)[C@@H](CC(C)C)C(=O)N(C)[C@H](Cc3noc(C(C)(C)C)n3)C(=O)N[C@H](Cc3ccccc3)COc3ccc4ncc(F)cc4c3C(=O)N2)on1` [Example 972, (3S,7S,10R,13R)-13-benzyl-10-((5-(tert-butyl)-1,2,4-oxadiazol-3-yl)methyl)-20-fluoro-7-isobutyl-N-(2-(3-methoxyisoxazol-5-yl)ethyl)-6,9-dimethyl-1,5,8,11-tetraoxo-1,2,3,4,5,6,7,8,9,10,11,12,13,14-tetradecahydro-[1]oxa[4,7,10,14]tetraazacycloheptadecino[16,17-f]quinoline-3-carboxamide], the 50% effective concentration (EC50) came to 128 nM and the Emax worked out at 436%.
As to `COc1noc(CCNC(=O)[C@@H]2CC(=O)N(C)[C@@H](CC(C)C)C(=O)N3CCCC[C@@H]3C(=O)N[C@H](Cc3ccccc3)COc3ccc4ncc(F)cc4c3C(=O)N2)c1F` [Example 973, (9S,13S,19aR,22R)-22-benzyl-5-fluoro-N-(2-(4-fluoro-3-methoxyisoxazol-5-yl)ethyl)-13-isobutyl-12-methyl-7,11,14,20-tetraoxo-7,8,9,10,11,12,13,14,17,18,19,19a,20,21,22,23-hexadecahydro-16H-pyrido[2′,1′:6,7][1]oxa[4,7,10,14]tetraazacycloheptadecino[16,17-f]quinoline-9-carboxamide], the EC50 stood at 117 nM and the Emax was found to be 446%.
The like results for `COc1noc(CCNC(=O)[C@@H]2CC(=O)N(C)[C@@H](CC(C)C)C(=O)N(C)[C@H](CC(F)(F)F)C(=O)N[C@H](Cc3ccccc3)COc3cc(C)c4ncccc4c3C(=O)N2)n1` [Example 975, (3S,7S,10R,13R)-13-benzyl-7-isobutyl-N-(2-(3-methoxy-1,2,4-oxadiazol-5-yl)ethyl)-6,9,17-trimethyl-1,5,8,11-tetraoxo-10-(2,2,2-trifluoroethyl)-1,2,3,4,5,6,7,8,9,10,11,12,13,14-tetradecahydro-[1]oxa[4,7,10,14]tetraazacycloheptadecino[16,17-f]quinoline-3-carboxamide] were, in that order, 119 nM and 497%.
With `CCOCC[C@@H]1C(=O)N[C@H](Cc2ccccc2)COc2ccc3ncc(F)cc3c2C(=O)N[C@H](C(=O)NCCc2nc(C3CC3)no2)CC(=O)N(C)[C@@H](CC(C)C)C(=O)N1C` [Example 976, (3S,7S,10R,13R)-13-Benzyl-N-(2-(3-cyclopropyl-1,2,4-oxadiazol-5-yl)ethyl)-10-(2-ethoxyethyl)-20-fluoro-7-isobutyl-6,9-dimethyl-1,5,8,11-tetraoxo-1,2,3,4,5,6,7,8,9,10,11,12,13,14-tetradecahydro-[1]oxa[4,7,10,14]tetraazacycloheptadecino[16,17-f]quinoline-3-carboxamide], the concentration for a half-maximal effect (EC50) was 179 nM and the Emax stood at 348%.
`COc1cc(CCNC(=O)[C@@H]2CC(=O)N(C)[C@@H](CC(C)C)C(=O)N(C)[C@H](CCOc3cnc(C)cn3)C(=O)N[C@H](Cc3ccccc3)COc3cc(C)nc(OC)c3C(=O)N2)on1` [Example 977, (3R,6R,9S,13S)-3-benzyl-9-isobutyl-16-methoxy-N-(2-(3-methoxyisoxazol-5-yl)ethyl)-7,10,18-trimethyl-6-(2-((5-methylpyrazin-2-yl)oxy)ethyl)-5,8,11,15-tetraoxo-2,3,4,5,6,7,8,9,10,11,12,13,14,15-tetradecahydropyrido[3,4-p][1]oxa[4,7,10,14]tetraazacycloheptadecine-13-carboxamide]: the EC50 was determined as 281 nM and the maximal effect (Emax) is 410%.
In the case of `COc1cc(OCC[C@@H]2C(=O)N[C@H](Cc3ccccc3)COc3cc(C)nc(OC)c3C(=O)N[C@H](C(=O)NCCc3cc(OC)no3)CC(=O)N(C)[C@@H](CC(C)C)C(=O)N2C)ccn1` [Example 978, (3R,6R,9S,13S)-3-benzyl-9-isobutyl-16-methoxy-N-(2-(3-methoxyisoxazol-5-yl)ethyl)-6-(2-((2-methoxypyridin-4-yl)oxy)ethyl)-7,10,18-trimethyl-5,8,11,15-tetraoxo-2,3,4,5,6,7,8,9,10,11,12,13,14,15-tetradecahydropyrido[3,4-p][1]oxa[4,7,10,14]tetraazacycloheptadecine-13-carboxamide], the EC50 came to 129 nM and the maximal response (Emax) was found to be 457%.
The corresponding values for `COc1cc(CCNC(=O)[C@@H]2CC(=O)N(C)[C@@H](CC(C)C)C(=O)N(C)[C@H](CC3CC3)C(=O)N[C@H](Cc3ccccc3)COc3cc(C)nc(OC)c3C(=O)N2)on1` [Example 979, (3R,6R,9S,13S)-3-benzyl-6-(cyclopropylmethyl)-9-isobutyl-16-methoxy-N-(2-(3-methoxyisoxazol-5-yl)ethyl)-7,10,18-trimethyl-5,8,11,15-tetraoxo-2,3,4,5,6,7,8,9,10,11,12,13,14,15-tetradecahydropyrido[3,4-p][1]oxa[4,7,10,14]tetraazacycloheptadecine-13-carboxamide] are 209 nM and 394%.
